Measurements published in patent publication US20100022531A1, “NOVEL COMPOUNDS AS P2X7 MODULATORS AND USES THEREOF” (RENOVIS, INC., priority 2005, published 2010).
Where two headings read alike, the source gives them in different places.

Molecular target: T1, P2X7 receptor (Homo sapiens, UniProt Q99572)
T1 construct: host or cells: THP-1 cells differentiated with LPS and IFN-γ
T1 sequence (Q99572 1-595): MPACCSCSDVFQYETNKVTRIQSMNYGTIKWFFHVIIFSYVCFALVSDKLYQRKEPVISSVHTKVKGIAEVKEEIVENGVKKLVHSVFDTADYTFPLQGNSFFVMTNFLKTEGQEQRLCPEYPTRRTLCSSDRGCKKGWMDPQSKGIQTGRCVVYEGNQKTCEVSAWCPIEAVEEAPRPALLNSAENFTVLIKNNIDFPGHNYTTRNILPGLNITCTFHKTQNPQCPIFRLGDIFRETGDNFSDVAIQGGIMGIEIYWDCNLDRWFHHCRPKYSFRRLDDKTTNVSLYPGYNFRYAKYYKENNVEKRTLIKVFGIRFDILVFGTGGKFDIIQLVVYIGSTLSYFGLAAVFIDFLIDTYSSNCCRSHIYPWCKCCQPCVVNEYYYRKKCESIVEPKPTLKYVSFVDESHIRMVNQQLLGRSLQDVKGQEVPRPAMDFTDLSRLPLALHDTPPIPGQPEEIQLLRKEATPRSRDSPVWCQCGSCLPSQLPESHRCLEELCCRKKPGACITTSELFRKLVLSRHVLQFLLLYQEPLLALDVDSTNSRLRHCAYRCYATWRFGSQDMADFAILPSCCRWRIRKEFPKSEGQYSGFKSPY
Test: Alternate method for IL-1β release assay (differentiated THP-1 cells, BzATP-stimulated, ELISA)
Assay type: cell-based
Conditions: for inhibition at 0.1 µM: read-out: IL-1β % inhib @ 0.1 μM
Experimental: Alternate Method for IL-1β Release Assay
THP-1 cells (ATCC Cat #285-IF-100) are plated in 96 well plates at a concentration of 200,000 cells per well and allowed to differentiate in RPMI-1640 media (ATCC Cat #30-2001) containing 10% FBS, 100 IU/mL penicillin, 100 ug/mL streptomycin, 100 ng/mL LPS and 100 ng/mL IFN-γ for 16 hours. Following differentiation, the cells are treated for an additional 2 hours in RPMI-1640 media containing 100 IU/mL penicillin, 100 ug/mL streptomycin and fresh LPS at 100 ng/mL. The cells are then pretreated for 30 minutes with the compound of interest at the appropriate concentration in RPMI media containing 100 IU/mL penicillin, 100 ug/mL streptomycin. Following the pretreatment 2′,3′-O-(4-benzoylbenzoyl)-adenosine 5′-triphosphate (Sigma Aldrich Cat# B6396) is added to a final concentration of 250 uM and the cells incubated for an additional 45 minutes. 30 uL of cell supernatant is then collected and IL-1β levels determined via ELISA (R&D systems Cat. # HSLB50) according to manufacturers recommendations using the Tecan Safire plate reader. Background adjusted IL-1β levels of drug treated and non-treated cells are used to calculate the percent inhibition.

[1] = P2X7, 0.3 μM compound (asterisk symbols), read-out: IL-1β % inhib @ 0.3 μM
[2] = P2X7, 0.3 μM compound (symbols * to ****), read-out: IL-1β % inhib @ 0.3 μM
[3] = P2X7, 0.1 μM compound (symbols + to ++++)
[4] = P2X7, 0.1 μM compound (plus symbols)

Structure (SMILES) | inhibition at 0.3 µM [1] [%] | inhibition at 0.3 µM [2] [%] | also measured
CC12CC3CC(C)(C1)CC(CNc1ncnc4c1CCN(Cc1ccccc1)C4)(C3)C2 [Compound 2] | 0 to 25 | – | –
Cc1ccc2occ(CN3CCc4c(ncnc4NCC45CC6CC(CC(C6)C4)C5)C3)c(=O)c2c1 [Compound 178] | 25 to 50 | – | –
CCOc1ccc(CN2CCc3c(ncnc3NCC34CC5CC(CC(C5)C3)C4)C2)cc1 [Compound 241] | – | > 75 | –
O=C(Cc1ccc(F)cc1)N1CCc2c(ncnc2NCC23CC4CC(CC(C4)C2)C3)C1 [Compound 96] | 50 to 75 | – | –
COc1ccc(CN2CCc3c(ncnc3NCC34CC5CC(CC(C5)C3)C4)C2)c(Cl)c1OC [Compound 197] | 0 to 25 | – | –
COc1ccc(CN2CCc3c(ncnc3NCC34CC5CC(CC(C5)C3)C4)C2)cc1OCc1ccccc1 [Compound 203] | – | 0 to 25 | –
O=S(=O)(c1cc(Cl)ccc1Cl)N1CCc2c(ncnc2NCC23CC4CC(CC(C4)C2)C3)C1 [Compound 61] | 50 to 75 | – | –
COc1ccc(CN2CCc3c(ncnc3NCC34CC5CC(CC(C5)C3)C4)C2)c(OC)c1 [Compound 219] | – | 0 to 25 | –
Cc1c(S(=O)(=O)N2CCc3c(ncnc3NCC34CC5CC(CC(C5)C3)C4)C2)cnn1-c1ccccc1 [Compound 19] | 50 to 75 | – | –
Clc1cccc(CN2CCc3c(ncnc3NCC34CC5CC(CC(C5)C3)C4)C2)c1 [Compound 209] | – | 0 to 25 | –
O=C(COc1cccc(Cl)c1)N1CCc2c(ncnc2NCC23CC4CC(CC(C4)C2)C3)C1 [Compound 248, 1-{4-[(Adamantan-1-ylmethyl)-amino]-5,8-dihydro-6H-pyrido[3,4-d]pyrimidin-7-yl}-2-(3-chloro-phenoxy)-ethanone] | – | – | inhibition at 0.1 µM [3]: > 75%
O=C(CN1CCCCC1)N1CCc2c(ncnc2NCC23CC4CC(CC(C4)C2)C3)C1 [Compound 266] | – | – | inhibition at 0.3 µM (P2X7, read-out: IL-1β % inhib @ 0.3 μM): 0 to 25%
O=S(=O)(Cc1cc(C(F)(F)F)cc(C(F)(F)F)c1)N1CCc2c(ncnc2NCC23CC4CC(CC(C4)C2)C3)C1 [Compound 38] | 0 to 25 | – | –
COc1cccc(C(=O)N2CCc3c(ncnc3NCC34CC5CC(CC(C5)C3)C4)C2)c1 [Compound 105] | – | – | inhibition at 0.1 µM [4]: 25 to 50%
O=C(c1ccc(F)cc1)N1CCc2c(ncnc2NCC23CC4CC(CC(C4)C2)C3)C1 [Compound 106] | – | – | inhibition at 0.1 µM [4]: > 75%
O=C(Cc1ccc(Cl)cc1)N1CCc2c(ncnc2NCC23CC4CC(CC(C4)C2)C3)C1 [Compound 120] | 25 to 50 | – | –
CC1CCN(CC(=O)N2CCc3c(ncnc3NCC3C4CC5CC(C4)CC3C5)C2)CC1 (centres unmarked) [Compound 292] | – | 25 to 50 | –
CCN1CCN(CC(=O)N2CCc3c(ncnc3NCC3C4CC5CC(C4)CC3C5)C2)CC1 (centres unmarked) [Compound 278] | – | 25 to 50 | –
O=C(CCc1ccccc1)N1CCc2c(ncnc2NCC23CC4CC(CC(C4)C2)C3)C1 [Compound 103] | > 75 | – | –
Cc1cccc(C(=O)N2CCc3c(ncnc3NCC34CC5CC(CC(C5)C3)C4)C2)c1 [Compound 86] | > 75 | – | –
O=S(=O)(Cc1ccccc1)N1CCc2c(ncnc2NCC23CC4CC(CC(C4)C2)C3)C1 [Compound 14] | > 75 | – | –
CC(C)(C)OC(=O)N[C@H](Cc1ccccc1)C(=O)N1CCc2c(ncnc2NCC(O)C23CC4CC(CC(C4)C2)C3)C1 (stereo partly drawn) [Compound 711, {(R)-2-[4-(2-Adamantan-1-yl-2-hydroxy-ethylamino)-5,8-dihydro-6H-pyrido[3,4-d]pyrimidin-7-yl]-1-benzyl-2-oxo-ethyl}-carbamic acid tert-butyl ester] | – | – | inhibition at 0.03 µM (P2X7, at 0.03 μM (asterisk symbols), read-out: IL-1β % inhib @ 0.3 μM or @ 0.03 μM): 0 to 25%
CCS(=O)(=O)N1CCc2c(ncnc2NCC23CC4CC(CC(C4)C2)C3)C1 [Compound 9] | – | – | inhibition at 0.1 µM [4]: > 75%
O=S(=O)(c1ccc(OC(F)(F)F)cc1)N1CCc2c(ncnc2NCC23CC4CC(CC(C4)C2)C3)C1 [Compound 16] | 0 to 25 | – | –
Cc1cccc(CN2CCc3c(ncnc3NCC34CC5CC(CC(C5)C3)C4)C2)c1 [Compound 217] | – | > 75 | –

Structure (SMILES) | inhibition at 0.3 µM [1] [%] | inhibition at 0.3 µM [2] [%] | also measured
O=S(=O)(c1ccc(Oc2ccccc2)cc1)N1CCc2c(ncnc2NCC23CC4CC(CC(C4)C2)C3)C1 [Compound 47] | – | – | inhibition at 0.1 µM [4]: 50 to 75%
COc1ccc(OC)c(CN2CCc3c(ncnc3NCC34CC5CC(CC(C5)C3)C4)C2)c1 [Compound 242] | – | > 75 | –
COc1cccc(CN(C)CC(=O)N2CCc3c(ncnc3NCC3C4CC5CC(C4)CC3C5)C2)c1 (centres unmarked) [Compound 308] | – | 0 to 25 | –
CN(CC(=O)N1CCc2c(ncnc2NCC2C3CC4CC(C3)CC2C4)C1)Cc1cccc(Cl)c1 (centres unmarked) [Compound 311] | – | 25 to 50 | –
O=S(=O)(Cc1cccc(C(F)(F)F)c1)N1CCc2c(ncnc2NCC23CC4CC(CC(C4)C2)C3)C1 [Compound 43] | 25 to 50 | – | –
O=S(=O)(c1ccccc1-c1ccccc1)N1CCc2c(ncnc2NCC23CC4CC(CC(C4)C2)C3)C1 [Compound 50] | – | – | inhibition at 0.1 µM [4]: 25 to 50%
CN1CCC(NCC(=O)N2CCc3c(ncnc3NCC3C4CC5CC(C4)CC3C5)C2)CC1 (centres unmarked) [Compound 289] | – | 0 to 25 | –
CC(CN1CCc2c(ncnc2NCC23CC4CC(CC(C4)C2)C3)C1)c1ccccc1 (centres unmarked) [Compound 165] | 0 to 25 | – | –
Cc1ccc(F)cc1S(=O)(=O)N1CCc2c(ncnc2NCC23CC4CC(CC(C4)C2)C3)C1 [Compound 69] | 0 to 25 | – | –
O=C(c1ccc(OC(F)(F)F)cc1)N1CCc2c(ncnc2NCC23CC4CC(CC(C4)C2)C3)C1 [Compound 84] | 0 to 25 | – | –
O=C(OCc1ccco1)N1CCc2c(ncnc2NCC23CC4CC(CC(C4)C2)C3)C1 [Compound 336] | – | – | inhibition at 0.1 µM [3]: > 75%
O=S(=O)(c1ccc(-n2cccn2)cc1)N1CCc2c(ncnc2NCC23CC4CC(CC(C4)C2)C3)C1 [Compound 52] | 0 to 25 | – | –
CC1(C)C2CC=C(CN3CCc4c(ncnc4NCC45CC6CC(CC(C6)C4)C5)C3)C1C2 (centres unmarked) [Compound 184] | > 75 | – | –
COc1cccc(CN2CCc3c(ncnc3NCC34CC5CC(CC(C5)C3)C4)C2)c1 [Compound 195] | > 75 | – | –
Clc1ccc(CN2CCc3c(ncnc3NCC34CC5CC(CC(C5)C3)C4)C2)cc1Cl [Compound 201] | – | 0 to 25 | –
CN(CC(=O)N1CCc2c(ncnc2NCC2C3CC4CC(C3)CC2C4)C1)C1CCCCC1 (centres unmarked) [Compound 269] | – | 50 to 75 | –
O=S(=O)(c1ccc(F)c(Cl)c1)N1CCc2c(ncnc2NCC23CC4CC(CC(C4)C2)C3)C1 [Compound 49] | 50 to 75 | – | –
Cc1ccc(S(=O)(=O)N2CCc3c(ncnc3NCC34CC5CC(CC(C5)C3)C4)C2)cc1Cl [Compound 64] | 25 to 50 | – | –
CC(=O)Nc1ccc(CN2CCc3c(ncnc3NCC34CC5CC(CC(C5)C3)C4)C2)cc1 [Compound 227] | – | 0 to 25 | –
O=C(C1COc2ccccc2C1)N1CCc2c(ncnc2NCC23CC4CC(CC(C4)C2)C3)C1 (centres unmarked) [Compound 160] | > 75 | – | –
CS(=O)(=O)c1ccc(COC(=O)N2CCc3c(ncnc3NCC34CC5CC(CC(C5)C3)C4)C2)cc1 [Compound 329] | – | – | inhibition at 0.1 µM [3]: 50 to 75%
O=c1ccc2cc(S(=O)(=O)N3CCc4c(ncnc4NCC45CC6CC(CC(C6)C4)C5)C3)ccc2o1 [Compound 28] | 25 to 50 | – | –
O=C(OCc1ccc(F)cc1)N1CCc2c(ncnc2NCC23CC4CC(CC(C4)C2)C3)C1 [Compound 327] | – | – | inhibition at 0.1 µM [3]: 50 to 75%
c1nc2c(c(NCC34CC5CC(CC(C5)C3)C4)n1)CCN(CC1CCCC1)C2 [Compound 230] | – | > 75 | –
O=C(c1c(Cl)cccc1Cl)N1CCc2c(ncnc2NCC23CC4CC(CC(C4)C2)C3)C1 [Compound 75] | – | – | inhibition at 0.1 µM [4]: > 75%
